Data set [1] deals with Monkey. The data set is described as follows: Tested for radical curative activity in monkeys infected with Plasmodium cynomolgi I = inactive. Type of data set: functional, organism-based. As to conditions: Cercopithecidae.
In data set [2] the test system is Monkey. The data set is described as follows: Tested for radical curative activity in monkeys infected with Plasmodium cynomolgi at 1.0 (mg/kg)/day dose; I = inactive. The note with it: Cercopithecidae. Type of data set: functional, organism-based.
Data set [3] concerns Monkey. The data set is described as follows: Tested for radical curative activity in monkeys infected with Plasmodium cynomolgi at 0.316 (mg/kg)/day dose; I = inactive. Type of data set: functional, organism-based. As to conditions: Cercopithecidae.
The subject of data set [4] is Monkey. In words: Tested for radical curative activity in monkeys infected with Plasmodium cynomolgi at 1 (mg/kg)/day dose; I = inactive. As to conditions: Cercopithecidae. The format is functional, organism-based.
Data set [5] relates to Monkey. The data set is described as follows: Tested for radical curative activity in monkeys infected with Plasmodium cynomolgi at 10 (mg/kg)/day dose; T = toxic. Type of data set: organism-based. The note with it: cercopithecidae, in vivo.
Data set [6] relates to Monkey. In words: Tested for radical curative activity in monkeys infected with Plasmodium cynomolgi at 10.0 (mg/kg)/day dose; C = curative. The format is functional, organism-based. As to conditions: Cercopithecidae.

In ChEMBL document CHEMBL1121434, “4-[(Aminoalkyl)amino]-1,2-dimethoxynaphthalenes as antimalarial agents” (J Med Chem, 1980) one finds Activity data, which are given here for five compounds.

Calls of active or inactive are those of the source. No cut-off for these calls is given here.

In the case of `CCN(CC)CCCC(C)Nc1cc(OC)c(OC)c2ccccc12` (stereo not drawn), in the data set with Monkey [1], the result was inactive. Take `COc1cc(NC(C)CCCN)c2ccccc2c1OC` (stereo not drawn): the result in the data set on Monkey [2] was inactive. Consider `CCC(CCCN)Nc1cc(OC)c(OC)c2ccccc12` (stereo not drawn), for which the result in the data set on Monkey [3] and in the data set on Monkey [4] was inactive. In addition, the Activity result in the data set on Monkey [5] is given as “Toxic”. Take `COc1cc(NCCCC(C)N)c2cc(Br)ccc2c1OC` (stereo not drawn): in the data set with Monkey [2], the result was inactive. Besides, the Activity entry with Monkey [6] was “Curative”. On to `COc1cc(NCCCC(C)N)c2ccccc2c1OC` (stereo not drawn), for which the outcome with Monkey [2] was inactive.
